34 compounds from patent publication US8889667B2 (Agios Pharmaceuticals, Inc, priority 2010, dated 2014) can be followed below.

Structures are written as SMILES. Where only a bound is given, the exact number is not on record here.

The first experiment deals with PKM2 (Homo sapiens, UniProt P14618). The experiment can be described thus: PKM2 Assay (activation, LDH-coupled, absorbance at 340 nm). The format is biochemical. As to conditions: Table 4. On the procedure: • PKM2 stock enzyme solution was diluted in Reaction Buffer • 2 μL of compound was added into each well first, and then 180 μL of the Reaction Mix was added. • Reaction mixture with compound (without ADP) was incubated for 30 minutes at 4° C. • Plates were re-equilibrated to room temperature prior to adding 20 μL ADP to initiate the reaction. • Reaction progress was measured as changes in absorbance at 340 nm wavelength at room temperature (25° C.) Reaction Mix: PKM2 (50 ng/well), ADP (0.7 mM), PEP (0.15 mM), NADH (180 μM), LDH (2 units) in Reaction Buffer Reaction Buffer: 100 mM KCl, 50 mM Tris pH 7.5, 5 mM MgCl2, 1 mM DTT, 0.03% BSA.
Chain of PKM2 (P14618 whole entry): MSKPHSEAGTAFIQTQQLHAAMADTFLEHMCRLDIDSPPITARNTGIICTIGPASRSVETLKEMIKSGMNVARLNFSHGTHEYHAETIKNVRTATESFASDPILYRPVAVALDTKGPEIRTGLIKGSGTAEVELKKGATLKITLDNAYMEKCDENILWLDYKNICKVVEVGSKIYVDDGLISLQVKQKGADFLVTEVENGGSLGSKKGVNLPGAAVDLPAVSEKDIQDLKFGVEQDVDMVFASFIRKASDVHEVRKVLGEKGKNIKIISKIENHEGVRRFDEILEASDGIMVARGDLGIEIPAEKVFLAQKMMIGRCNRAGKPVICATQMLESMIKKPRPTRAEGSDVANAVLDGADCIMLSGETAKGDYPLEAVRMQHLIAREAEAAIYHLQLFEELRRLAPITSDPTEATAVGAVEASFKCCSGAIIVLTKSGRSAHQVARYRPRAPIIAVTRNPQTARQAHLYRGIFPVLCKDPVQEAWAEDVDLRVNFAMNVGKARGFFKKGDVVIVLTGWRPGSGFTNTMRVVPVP
Representative compounds of the invention were tested for their ability to activate PKM2 using the above assay. For simplicity, the activation activity of these compounds is represented as an AC50 in Tables 4 and 5 and throughout the application. […] “B” refers to an activator of PKM2 with an EC50 between 100 nM and 500 nM. “C” refers to an activator of PKM2 with an EC50 between 500 nM and 1000 nM. “D” refers to an activator of PKM2 with an EC50 between 1 μM and 20 μM. “E” refers a compound whose activation of PKM2 was not measurable. “N/C” refers to AC50 data not available.
Regarding `O=C(c1ccc(NS(=O)(=O)c2cccc3cccnc23)cc1)N1CC2CCC(C1)N2Cc1cc(F)cc(F)c1` [Compound 218, N-(4-(8-(3,5-difluorobenzyl)-3,8-diazabicyclo[3.2.1]octane-3-carbonyl)phenyl)quinoline-8-sulfonamide], the concentration at half-maximal activity (AC50) – broadly, the concentration giving half of the maximal activity seen – lay in the range of 0.1 to 0.5 µM.
On the same count and under the same terms, the value for `CC1CN(Cc2c(F)cc(F)cc2F)CC(C)N1C(=O)c1ccc(NS(=O)(=O)c2cccc3cccnc23)cc1` (stereo not shown) [Compound 202, N-(4-(2,6-dimethyl-4-(2,4,6-trifluorobenzyl)piperazine-1-carbonyl)phenyl)quinoline-8-sulfonamide] was 0.1 to 0.5 µM; that for `CCOC(=O)N1CCN(C(=O)c2ccc(NS(=O)(=O)c3cccc4cccnc34)cc2)[C@H](C)C1` [Compound 109, (R)-Ethyl 3-methyl-4-(4-(quinoline-8-sulfonamido)benzoyl)piperazine-1-carboxylate] was 0.1 to 0.5 µM.
`CC[C@H]1CN(C(C)c2cc(F)c(F)c(F)c2)CCN1C(=O)c1ccc(NS(=O)(=O)c2cccc3cccnc23)cc1` (stereo partly drawn) [Compound 162, N-(4-((2S)-2-ethyl-4-(1-(3,4,5-trifluorophenyl)ethyl)piperazine-1-carbonyl)phenyl)quinoline-8-sulfonamide] registered an AC50 of 0.1 to 0.5 µM.
The same measure, in the same setting: the value for `C[C@@H]1CN(CC2CCCC2)CCN1C(=O)c1ccc(NS(=O)(=O)c2cccc3cccnc23)cc1` [Compound 114, (R)—N-(4-(4-(cyclopentylmethyl)-2-methylpiperazine-1-carbonyl)phenyl)quinoline-8-sulfonamide] was below 0.1 µM; that for `C[C@H]1CN(Cc2ccc(F)c(F)c2F)CCN1C(=O)c1ccc(NS(=O)(=O)c2cccc3cccnc23)cc1` [Compound 154, (S)—N-(4-(2-methyl-4-(2,3,4-trifluorobenzyl)piperazine-1-carbonyl)phenyl)quinoline-8-sulfonamide] was 0.1 to 0.5 µM.
The same measure, in the same setting: the result for `COc1ccccc1N1CCN(C(=O)c2ccc(NS(=O)(=O)c3cccc4cccnc34)cc2)C(C)C1` (stereo not shown) [Compound 223, N-(4-(4-(2-methoxyphenyl)-2-methylpiperazine-1-carbonyl)phenyl)quinoline-8-sulfonamide] reads below 0.1 µM; that for `CC(c1ccc(F)cc1F)N1CCN(C(=O)c2ccc(NS(=O)(=O)c3cccc4cccnc34)cc2)[C@@H](C)C1` (stereo partly shown) [Compound 169], 0.1 to 0.5 µM; that for `O=C(c1ccc(NS(=O)(=O)c2cccc3cccnc23)cc1)N1C2CCC1CN(Cc1ccccc1)C2` [Compound 213], below 0.1 µM.
Turning to `C[C@H]1CN(Cc2cc(F)cc(F)c2)CCN1C(=O)c1ccc(NS(=O)(=O)c2cccc3cccnc23)cc1` [Compound 142, (S)—N-(4-(4-(3,5-difluorobenzyl)-2-methylpiperazine-1-carbonyl)phenyl)quinoline-8-sulfonamide], the concentration at half-maximal activity (AC50) was below 0.1 µM.
`CC1CN(Cc2cc(F)c(F)c(F)c2)CC(C)N1C(=O)c1ccc(NS(=O)(=O)c2cccc3cccnc23)cc1` (stereo not shown) [Compound 201, N-(4-(2,6-dimethyl-4-(3,4,5-trifluorobenzyl)piperazine-1-carbonyl)phenyl)quinoline-8-sulfonamide] gave an AC50 of 0.1 to 0.5 µM.
On to `O=C(c1ccc(NS(=O)(=O)c2cccc3cccnc23)cc1)N1CCN(Cc2cc(F)cc(F)c2)C[C@@H]1c1ccccc1` [Compound 181], for which the half-maximal activity concentration (AC50) is 0.1 to 0.5 µM.
As to `CC(c1cc(F)cc(F)c1)N1CCN(C(=O)c2ccc(NS(=O)(=O)c3cccc4cccnc34)cc2)[C@@H](C)C1` (stereo partly shown) [Compound 170], the AC50 fell in the range of 0.1 to 0.5 µM.
In turn, `C[C@H]1CN(C(=O)c2ccc(NS(=O)(=O)c3cccc4cccnc34)cc2)CCN1C(=O)c1ccccn1` [Compound 100] displayed an AC50 of 0.1 to 0.5 µM.
With `O=C(c1ccc(NS(=O)(=O)c2cccc3cccnc23)cc1)N1C2CCC1CN(Cc1cc(F)cc(F)c1)C2` [Compound 227, N-(4-(3-(3,5-difluorobenzyl)-3,8-diazabicyclo[3.2.1]octane-8-carbonyl)phenyl)quinoline-8-sulfonamide], the AC50 was 0.1 to 0.5 µM.

Staying with this experiment, now noted: Table 5.
The compound `O=C(c1ccc(NS(=O)(=O)c2cccc3cccnc23)cc1)N1CCN(C2(c3ccccc3)CCCC2)CC1` [Compound 406, N-(4-(4-(1-phenylcyclopentyl)piperazine-1-carbonyl)phenyl)quinoline-8-sulfonamide] registered a half-maximal activity concentration (AC50) below 0.1 µM.
The same measure, in the same setting: the result for `O=C(c1cnc(NS(=O)(=O)c2cccc3cccnc23)cn1)N1CCN(CC2CC2)CC1` [Compound 451, N-(5-(4-(cyclopropylmethyl)piperazine-1-carbonyl)pyrazin-2-yl)quinoline-8-sulfonamide] reads above 20 µM; that for `O=C(c1ccc(NS(=O)(=O)c2cccc3cccnc23)cc1)N1CCN(Cc2cn[nH]c2)CC1` [Compound 385, N-(4-(4-((1H-pyrazol-4-yl)methyl)piperazine-1-carbonyl)phenyl)quinoline-8-sulfonamide], below 0.1 µM.
The compound `O=C(c1ccc(NS(=O)(=O)c2cccc3cccnc23)c(OC(F)(F)F)c1)N1CCN(CCc2ccccc2)CC1` [Compound 303, N-(4-(4-phenethylpiperazine-1-carbonyl)-2-(trifluoromethoxy)phenyl)quinoline-8-sulfonamide] registered an AC50 of 0.1 to 0.5 µM.
On the same count and under the same terms, the result for `O=C(c1ccc(NS(=O)(=O)c2cccc3cccnc23)cc1)N1CCN(C(=O)c2c[nH]cn2)CC1` [Compound 349, N-(4-(4-(1H-imidazole-4-carbonyl)piperazine-1-carbonyl)phenyl)quinoline-8-sulfonamide] reads 0.1 to 0.5 µM; that for `COc1cc(NS(=O)(=O)c2cccc3cccnc23)ccc1C(=O)N1CCN(C2(c3ccccc3)CC2)CC1` [Compound 393, N-(3-methoxy-4-(4-(1-phenylcyclopropyl)piperazine-1-carbonyl)phenyl)quinoline-8-sulfonamide], below 0.1 µM; that for `CC(C)(c1ccccc1)N1CCN(C(=O)c2ccc(NS(=O)(=O)c3cccc4cccnc34)cc2)CC1` [Compound 364], below 0.1 µM.
For the compound `O=C(c1ccc(NS(=O)(=O)c2cccc3cccnc23)cc1F)N1CCN(CC2CCOCC2)CC1` [Compound 436, N-(3-fluoro-4-(4-((tetrahydro-2H-pyran-4-yl)methyl)piperazine-1-carbonyl)phenyl)quinoline-8-sulfonamide], the AC50 is below 0.1 µM.
As to `O=C(c1ccc(NS(=O)(=O)c2cccc3cccnc23)c(OC(F)(F)F)c1)N1CCN(Cc2cncc(F)c2)CC1` [Compound 300], the AC50 lay in the range of 0.1 to 0.5 µM.
The same measure, in the same setting: the value for `O=C(c1ccc(NS(=O)(=O)c2cccc3cccnc23)c(OC(F)(F)F)c1)N1CCN(Cc2ccc(C(F)(F)F)cc2)CC1` [Compound 334, N-(2-(trifluoromethoxy)-4-(4-(4-(trifluoromethyl)benzyl)piperazine-1-carbonyl)phenyl)quinoline-8-sulfonamide] was 0.1 to 0.5 µM; that for `O=C(c1ccc(NS(=O)(=O)c2cccc3cccnc23)cc1)N1CCN(C(=O)c2ccno2)CC1` [Compound 365, N-(4-(4-(isoxazole-5-carbonyl)piperazine-1-carbonyl)phenyl)quinoline-8-sulfonamide] was below 0.1 µM.
On the same count and under the same terms, the result for `CC(C)(c1ccccc1)N1CCN(C(=O)c2ccc(NS(=O)(=O)c3cccc4cccnc34)c(OC(F)(F)F)c2)CC1` [Compound 340, N-(4-(4-(2-phenylpropan-2-yl)piperazine-1-carbonyl)-2-(trifluoromethoxy)phenyl)quinoline-8-sulfonamide] reads 0.1 to 0.5 µM; that for `O=C(c1ccc(NS(=O)(=O)c2cccc3cccnc23)cn1)N1CCN(CC2CC2)CC1` [Compound 415, N-(6-(4-(cyclopropylmethyl)piperazine-1-carbonyl)pyridin-3-yl)quinoline-8-sulfonamide], 0.1 to 0.5 µM; that for `O=C(c1ccc(NS(=O)(=O)c2cccc3cccnc23)c(OC(F)(F)F)c1)N1CCN(C(=O)c2ccccc2F)CC1` [Compound 360], 0.1 to 0.5 µM.
Still for that read-out and setting: the result for `O=C(c1ccc(NS(=O)(=O)c2cccc3cccnc23)c(OC(F)(F)F)c1)N1CCN(Cc2cccc(F)c2)CC1` [Compound 377, N-(4-(4-(3-fluorobenzyl)piperazine-1-carbonyl)-2-(trifluoromethoxy)phenyl)quinoline-8-sulfonamide] reads 0.1 to 0.5 µM; that for `COc1cccc(F)c1CN1CCN(C(=O)c2ccc(NS(=O)(=O)c3cccc4cccnc34)c(OC(F)(F)F)c2)CC1` [Compound 308, N-(4-(4-(2-fluoro-6-methoxybenzyl)piperazine-1-carbonyl)-2-(trifluoromethoxy)phenyl)quinoline-8-sulfonamide], 0.5 to 1 µM.
`O=C(c1ccc(NS(=O)(=O)c2cccc3cccnc23)c(OC(F)(F)F)c1)N1CCN(Cc2c[nH]cn2)CC1` [Compound 381, N-(4-(4-((1H-imidazol-4-yl)methyl)piperazine-1-carbonyl)-2-(trifluoromethoxy)phenyl)quinoline-8-sulfonamide] gave an AC50 of 0.1 to 0.5 µM.
Still for that read-out and setting: the result for `O=C(c1ccc(NS(=O)(=O)c2cccc3cccnc23)cc1Cl)N1CCN(CC2CCCC2)CC1` [Compound 428, N-(3-chloro-4-(4-(cyclopentylmethyl)piperazine-1-carbonyl)phenyl)quinoline-8-sulfonamide] reads 0.1 to 0.5 µM.
Same read-out and setting: the result for `O=C(c1cc(F)cc(F)c1)N1CCN(C(=O)c2ccc(NS(=O)(=O)c3cccc4cccnc34)c(OC(F)(F)F)c2)CC1` [Compound 326, N-(4-(4-(3,5-difluorobenzoyl)piperazine-1-carbonyl)-2-(trifluoromethoxy)phenyl)quinoline-8-sulfonamide] reads 0.1 to 0.5 µM.
